Results: US9695155B2, “Herbicidal substituted pyrimidinyloxy benzene compounds” (E. I. DU PONT DE NEMOURS AND COMPANY, priority 2013, dated 2017)

What was measured:
barnyardgrass [1] = assay: Test A preemergence; format: in vivo, Echinochloa crus-galli
How it was run: (§1)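 Visual 0–100 rating (100 = complete control) taken about 10 d post-treatment relative to untreated checks. Preemergence: directed soil spray on sown loam/sand pots. Postemergence: seedlings 2–10 cm, 1–2 leaf. Non-phytotoxic solvent formulation with surfactant.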

large (Lg) crabgrass [2] = assay: Test A preemergence; format: in vivo, Digitaria sanguinalis
How it was run: as §1

giant foxtail [3] = assay: Test A preemergence; format: in vivo, Setaria faberii
How it was run: as §1

morningglory [4] = assay: Test A preemergence; format: in vivo, Ipomoea spp.
How it was run: as §1

pigweed [5] = assay: Test A preemergence; format: in vivo, Amaranthus retroflexus
How it was run: as §1

velvetleaf [6] = assay: Test A preemergence; format: in vivo, Abutilon theophrasti
How it was run: as §1

wheat [7] = assay: Test A preemergence; format: in vivo, Triticum aestivum
How it was run: as §1

corn [8] = assay: Test A preemergence; format: in vivo, Zea mays
How it was run: as §1

barnyardgrass [9] = assay: Test A postemergence; format: in vivo, Echinochloa crus-galli
How it was run: as §1

large (Lg) crabgrass [10] = assay: Test A postemergence; format: in vivo, Digitaria sanguinalis
How it was run: as §1

giant foxtail [11] = assay: Test A postemergence; format: in vivo, Setaria faberii
How it was run: as §1

morningglory [12] = assay: Test A postemergence; format: in vivo, Ipomoea spp.
How it was run: as §1

pigweed [13] = assay: Test A postemergence; format: in vivo, Amaranthus retroflexus
How it was run: as §1

velvetleaf [14] = assay: Test A postemergence; format: in vivo, Abutilon theophrasti
How it was run: as §1

wheat [15] = assay: Test A postemergence; format: in vivo, Triticum aestivum
How it was run: as §1

corn [16] = assay: Test A postemergence; format: in vivo, Zea mays
How it was run: as §1

rice = assay: Test B flooded paddy test; format: in vivo, Oryza sativa; conditions: Flood, 250 g ai/ha; 0 to 100 scale where 0 is no effect and 100 is complete control
How it was run: (§2)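 Seedlings are raised to two leaves, flooded to a depth of 3 cm and dosed by adding the compound to the floodwater. Water level is kept constant, and plants are scored visually versus controls 13–15 days later (0 = no effect, 100 = complete control).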

sedge, umbrella = assay: Test B flooded paddy test; format: in vivo, Cyperus difformis; conditions: Flood, 250 g ai/ha; 0 to 100 scale where 0 is no effect and 100 is complete control
How it was run: as §2

Heteranthera limosa = assay: Test B flooded paddy test; format: in vivo; conditions: Flood, 250 g ai/ha; 0 to 100 scale where 0 is no effect and 100 is complete control
How it was run: as §2

barnyardgrass [17] = assay: Test B flooded paddy test; format: in vivo, Echinochloa crus-galli; conditions: Flood, 250 g ai/ha; 0 to 100 scale where 0 is no effect and 100 is complete control
How it was run: as §2

[18] = 125 g ai/ha, 0 to 100 scale where 0 is no effect and 100 is complete control
[19] = 500 g ai/ha, 0 to 100 scale, 0 no effect, 100 complete control, approx. 10 days
[20] = 500 g ai/ha, 0 to 100 scale, 0 no effect, 100 complete control
[21] = 500 g ai/ha, 0 to 100 scale where 0 is no effect and 100 is complete control

FC(F)(F)c1cnc(Oc2ccccc2-n2cc(Cl)cn2)nc1 [Compound 6]
Barnyardgrass plant response rating (barnyardgrass [1]; [18]): 20 | Barnyardgrass plant response rating (barnyardgrass [1]; [19]): 90 | Crabgrass, Large plant response rating (large (Lg) crabgrass [2]; [18]): 90 | Crabgrass, Large plant response rating (large (Lg) crabgrass [2]; [19]): 100 | Foxtail, Giant plant response rating (giant foxtail [3]; [18]): 90 | Foxtail, Giant plant response rating (giant foxtail [3]; [19]): 100 | Morningglory plant response rating (morningglory [4]; [18]): 0 | Morningglory plant response rating (morningglory [4]; [19]): 10 | Pigweed plant response rating (pigweed [5]; [18]): 100 | Pigweed plant response rating (pigweed [5]; [19]): 100 | Velvetleaf plant response rating (velvetleaf [6]; [18]): 100 | Velvetleaf plant response rating (velvetleaf [6]; [19]): 100 | Wheat plant response rating (wheat [7]; [18]): 0 | Wheat plant response rating (wheat [7]; [19]): 30 | Corn plant response rating (corn [8]; [18]): 0 | Corn plant response rating (corn [8]; [19]): 20 | Plant response rating, Barnyardgrass (barnyardgrass [9]; [18]): 40 | Plant response rating, Barnyardgrass (barnyardgrass [9]; [20]): 100 | Plant response rating, Crabgrass, Large (large (Lg) crabgrass [10]; [18]): 50 | Plant response rating, Crabgrass, Large (large (Lg) crabgrass [10]; [20]): 100 | Plant response rating, Foxtail, Giant (giant foxtail [11]; [18]): 80 | Plant response rating, Foxtail, Giant (giant foxtail [11]; [20]): 100 | Plant response rating, Morningglory (morningglory [12]; [18]): 40 | Plant response rating, Morningglory (morningglory [12]; [20]): 70 | Plant response rating, Pigweed (pigweed [13]; [18]): 100 | Plant response rating, Pigweed (pigweed [13]; [20]): 100 | Plant response rating, Velvetleaf (velvetleaf [14]; [18]): 100 | Plant response rating, Velvetleaf (velvetleaf [14]; [20]): 100 | Plant response rating, Wheat (wheat [15]; [18]): 40 | Plant response rating, Wheat (wheat [15]; [20]): 90 | Plant response rating, Corn (corn [16]; [18]): 20 | Plant response rating, Corn (corn [16]; [20]): 60 | Plant response rating, Rice (rice): 15 | Plant response rating, Sedge, Umbrella (sedge, umbrella): 55 | Plant response rating, Ducksalad (Heteranthera limosa): 65 | Plant response rating, Barnyardgrass (barnyardgrass [17]): 0

FC(F)c1cccc(Oc2ncc(I)cn2)c1-n1cc(Br)cn1 [Compound 173]
Plant response rating, Barnyardgrass (barnyardgrass [1]; [18]): 0 | Barnyardgrass plant response rating (barnyardgrass [1]; [21]): 30 | Plant response rating, Crabgrass, Large (large (Lg) crabgrass [2]; [18]): 20 | Crabgrass, Large plant response rating (large (Lg) crabgrass [2]; [21]): 80 | Plant response rating, Foxtail, Giant (giant foxtail [3]; [18]): 50 | Foxtail, Giant plant response rating (giant foxtail [3]; [21]): 70 | Morningglory plant response rating (0 to 100 scale) (morningglory [4]; 125 g ai/ha): 0 | Morningglory plant response rating (morningglory [4]; [21]): 0 | Pigweed plant response rating (0 to 100 scale) (pigweed [5]; 125 g ai/ha): 80 | Pigweed plant response rating (pigweed [5]; [21]): 100 | Velvetleaf plant response rating (0 to 100 scale) (velvetleaf [6]; 125 g ai/ha): 0 | Velvetleaf plant response rating (velvetleaf [6]; [21]): 0 | Wheat plant response rating (0 to 100 scale) (wheat [7]; 125 g ai/ha): 0 | Wheat plant response rating (wheat [7]; [21]): 0 | Plant response rating, Corn (corn [8]; [18]): 0 | Corn plant response rating (corn [8]; [21]): 0 | Barnyardgrass plant response rating (barnyardgrass [9]; [18]): 0 | Plant response rating, Barnyardgrass (barnyardgrass [9]; [21]): 30 | Crabgrass, Large plant response rating (large (Lg) crabgrass [10]; [18]): 0 | Plant response rating, Crabgrass, Large (large (Lg) crabgrass [10]; [21]): 40 | Foxtail, Giant plant response rating (giant foxtail [11]; [18]): 10 | Plant response rating, Foxtail, Giant (giant foxtail [11]; [21]): 50 | Morningglory plant response rating (morningglory [12]; [18]): 0 | Plant response rating, Morningglory (morningglory [12]; [21]): 0 | Pigweed plant response rating (pigweed [13]; [18]): 100 | Plant response rating, Pigweed (pigweed [13]; [21]): 100 | Velvetleaf plant response rating (velvetleaf [14]; [18]): 60 | Plant response rating, Velvetleaf (velvetleaf [14]; [21]): 70 | Wheat plant response rating (wheat [15]; [18]): 0 | Plant response rating, Wheat (wheat [15]; [21]): 0 | Corn plant response rating (corn [16]; [18]): 0 | Plant response rating, Corn (corn [16]; [21]): 20 | Plant response rating, Rice (rice): 0 | Plant response rating, Sedge, Umbrella (sedge, umbrella): 0 | Plant response rating, Ducksalad (Heteranthera limosa): 0 | Plant response rating, Barnyardgrass (barnyardgrass [17]): 0

O=Cc1cccc(Oc2ncc(F)cn2)c1-n1cc(C(F)(F)F)cn1 [Compound 162]
Plant response rating, Barnyardgrass (barnyardgrass [1]; [18]): 10 | Barnyardgrass plant response rating (barnyardgrass [1]; [21]): 50 | Plant response rating, Crabgrass, Large (large (Lg) crabgrass [2]; [18]): 0 | Crabgrass, Large plant response rating (large (Lg) crabgrass [2]; [21]): 10 | Plant response rating, Foxtail, Giant (giant foxtail [3]; [18]): 0 | Foxtail, Giant plant response rating (giant foxtail [3]; [21]): 0 | Morningglory plant response rating (0 to 100 scale) (morningglory [4]; 125 g ai/ha): 0 | Morningglory plant response rating (morningglory [4]; [21]): 0 | Pigweed plant response rating (0 to 100 scale) (pigweed [5]; 125 g ai/ha): 100 | Pigweed plant response rating (pigweed [5]; [21]): 100 | Velvetleaf plant response rating (0 to 100 scale) (velvetleaf [6]; 125 g ai/ha): 10 | Velvetleaf plant response rating (velvetleaf [6]; [21]): 50 | Wheat plant response rating (0 to 100 scale) (wheat [7]; 125 g ai/ha): 0 | Wheat plant response rating (wheat [7]; [21]): 0 | Plant response rating, Corn (corn [8]; [18]): 0 | Corn plant response rating (corn [8]; [21]): 0 | Barnyardgrass plant response rating (barnyardgrass [9]; [18]): 0 | Plant response rating, Barnyardgrass (barnyardgrass [9]; [21]): 10 | Crabgrass, Large plant response rating (large (Lg) crabgrass [10]; [18]): 0 | Plant response rating, Crabgrass, Large (large (Lg) crabgrass [10]; [21]): 10 | Foxtail, Giant plant response rating (giant foxtail [11]; [18]): 0 | Plant response rating, Foxtail, Giant (giant foxtail [11]; [21]): 0 | Morningglory plant response rating (morningglory [12]; [18]): 0 | Plant response rating, Morningglory (morningglory [12]; [21]): 10 | Pigweed plant response rating (pigweed [13]; [18]): 30 | Plant response rating, Pigweed (pigweed [13]; [21]): 70 | Velvetleaf plant response rating (velvetleaf [14]; [18]): 10 | Plant response rating, Velvetleaf (velvetleaf [14]; [21]): 50 | Wheat plant response rating (wheat [15]; [18]): 0 | Plant response rating, Wheat (wheat [15]; [21]): 0 | Corn plant response rating (corn [16]; [18]): 0 | Plant response rating, Corn (corn [16]; [21]): 10 | Plant response rating, Rice (rice): 0 | Plant response rating, Sedge, Umbrella (sedge, umbrella): 40 | Plant response rating, Ducksalad (Heteranthera limosa): 35 | Plant response rating, Barnyardgrass (barnyardgrass [17]): 0
